Measured values as given in paper PMC8300687, “A Fine-Tuned Lipophilicity/Hydrophilicity Ratio Governs Antibacterial Potency and Selectivity of Bifurcated Halogen Bond-Forming NBTIs” (Antibiotics, 2021).
Values after ≈ are worked out from the molar mass of the structure shown. Read-outs that look alike come from different tables or passages of the source.

Columns and labels:
[1] = system: C. jejuni RDK 135 (ATCC 33560); test: MIC broth microdilution, C. jejuni; format: cell-based; conditions: Campylobacter jejuni, ATCC33560; read-out: MIC C. jejuni RDK 135 (ATCC 33560)
Procedure: (§1) Antimicrobial testing was carried out by the broth microdilution method in 96-well plate format following the Clinical and Laboratory Standards Institute (CLSI) guidelines and European Committee on Antimicrobial Susceptibility Testing (EUCAST) recommendations. Bacterial suspension of specific bacterial strain equivalent to 0.5 McFarland turbidity standard was diluted with cation-adjusted Mueller Hinton broth with TES (Thermo Fisher Diagnostic, Landsmeer, The Netherlands), to obtain a final inoculum of 10^5 CFU/mL. Compounds dissolved in DMSO and inoculum were mixed together and incubated for 18–20 h at 35 °C. Suspensions of Mycobacterium sp. were prepared into a tube of Middelbrook 7H9 broth supplemented with 5% OADC (Thermo Scientific, Trek Diagnostic Systems, West Sussex, UK) and incubated for at least 10 days. After incubation the minimal inhibitory concentration (MIC) values were determined by visual inspection as the lowest dilution of compounds showing no turbidity. Tetracycline was used as a positive control on every assay plate.

M. smegmatis = test: MIC, M. smegmatis; format: cell-based, Mycobacterium smegmatis; conditions: Mycolicibacterium smegmatis; read-out: MIC M. smegmatis
Procedure: as §1

E. coli N43 (CGSC# 5583) = test: MIC broth microdilution, E. coli N43; format: cell-based; conditions: Escherichia coli
Outline: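 For the mycobacterial strain, suspensions in Middelbrook 7H9 broth with 5% OADC were incubated no less than 10 days. Other strains: cation-adjusted Mueller Hinton/TES broth, 10^5 CFU/mL final, 35 °C for 18–20 h. Endpoint: no turbidity by visual inspection; tetracycline served as plate control.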

MRSA (QA-11.6) = test: MIC broth microdilution, MRSA QA-11.6; format: cell-based, methicillin-resistant S. aureus; conditions: Staphylococcus aureus, resistant to cefoxitin, gentamicin, sulfamethoxazole, tetracycline, read-out: MIC MRSA (QA-11.6)
Procedure: as §1

S. aureus Topo IV = target: T1, S. aureus Topo IV (Staphylococcus aureus, UniProt Q2FYS4); test: biochemical; conditions: for LE Topo IV S. aureus: LE = (1.37/HA) × pIC50; for IC50: mean of two to four measurements, read-out: Topoisomerase IV IC50 S. aureus
T1 construct: purchased Inspiralis (Norwich, UK)
T1 sequence (Q2FYS5 whole entry): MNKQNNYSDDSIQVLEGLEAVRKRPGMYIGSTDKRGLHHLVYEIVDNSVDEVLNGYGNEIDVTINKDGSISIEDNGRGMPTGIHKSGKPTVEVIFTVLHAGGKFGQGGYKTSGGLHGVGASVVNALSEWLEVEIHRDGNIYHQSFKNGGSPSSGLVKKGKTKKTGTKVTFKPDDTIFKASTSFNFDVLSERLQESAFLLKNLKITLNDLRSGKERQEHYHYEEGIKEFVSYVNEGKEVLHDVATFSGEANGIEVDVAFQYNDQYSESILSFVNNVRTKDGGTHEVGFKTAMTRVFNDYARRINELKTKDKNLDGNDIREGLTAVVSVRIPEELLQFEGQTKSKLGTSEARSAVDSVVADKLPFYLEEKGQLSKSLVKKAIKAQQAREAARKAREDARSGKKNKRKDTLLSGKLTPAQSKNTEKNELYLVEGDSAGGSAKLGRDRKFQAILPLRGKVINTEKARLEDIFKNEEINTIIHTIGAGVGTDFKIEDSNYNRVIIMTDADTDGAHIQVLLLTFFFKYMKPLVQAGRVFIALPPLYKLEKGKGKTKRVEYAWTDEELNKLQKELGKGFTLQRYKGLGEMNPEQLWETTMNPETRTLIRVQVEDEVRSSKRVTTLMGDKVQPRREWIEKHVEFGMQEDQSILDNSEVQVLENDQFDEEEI
T1 sequence (Q2FYS4 whole entry): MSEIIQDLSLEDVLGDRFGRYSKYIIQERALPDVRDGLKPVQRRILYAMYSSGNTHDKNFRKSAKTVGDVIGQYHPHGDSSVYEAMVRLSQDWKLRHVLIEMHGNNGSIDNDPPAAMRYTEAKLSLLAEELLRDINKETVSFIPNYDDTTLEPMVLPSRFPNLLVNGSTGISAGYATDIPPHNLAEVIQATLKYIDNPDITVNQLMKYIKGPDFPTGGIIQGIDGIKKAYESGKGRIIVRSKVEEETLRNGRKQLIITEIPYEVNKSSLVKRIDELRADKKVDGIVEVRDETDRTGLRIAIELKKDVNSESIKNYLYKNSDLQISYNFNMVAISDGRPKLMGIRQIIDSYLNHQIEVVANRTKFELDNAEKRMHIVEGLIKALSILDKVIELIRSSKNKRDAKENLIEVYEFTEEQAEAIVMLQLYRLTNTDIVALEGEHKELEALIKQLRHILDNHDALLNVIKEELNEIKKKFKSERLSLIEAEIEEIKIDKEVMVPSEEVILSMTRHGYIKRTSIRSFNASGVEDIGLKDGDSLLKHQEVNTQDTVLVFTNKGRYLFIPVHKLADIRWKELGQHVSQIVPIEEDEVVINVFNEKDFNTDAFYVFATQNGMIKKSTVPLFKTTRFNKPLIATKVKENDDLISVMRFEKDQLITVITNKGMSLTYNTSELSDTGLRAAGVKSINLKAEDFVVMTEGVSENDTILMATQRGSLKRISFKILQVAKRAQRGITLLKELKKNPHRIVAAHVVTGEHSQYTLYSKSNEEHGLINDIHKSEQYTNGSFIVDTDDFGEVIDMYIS
Procedure: (§2) A Topo IV Relaxation High Throughput Plate assay kit, purchased from Inspiralis (Norwich. UK) was used to determine IC50 values of compounds on S. aureus and E. coli. […] Biotinylated oligonucleotide in wash buffer was immobilized onto the wells, and the excess oligonucleotide was washed off with wash buffer and ultrapure water. 1.5 U of S. aureus or E. coli […] enzyme was incubated together with 0.75 μg of supercoiled pNO1 plasmid as a substrate in the presence of 3 μL inhibitor solution in 10% DMSO and 0.008% Tween 20 at 37 °C for 30 min in a final reaction volume of 30 μL in dilution buffer (50 mM Tris-HCl (pH 7.5), 1 mM DTT, 1 mM EDTA, 40% (w/v) glycerol for S. aureus and 40 mM HEPES, KOH (pH 7.6), 100 mM potassium glutamate, 1 mM DTT, 1 mM EDTA, and 40% (v/v) glycerol for E. coli). The reactions were stopped by adding the TF buffer (50 mM NaOAc (pH 4.7), 50 mM NaCl, and 50 mM MgCl2) to allow the triplex formation (biotin-oligonucleotide-plasmid) for additional 30 min. Afterward, the unbound plasmid was washed off using TF buffer, and the solution of Promega Diamond dye in T10 buffer (10 mM Tris-HCl (pH 8.0), 1 mM EDTA) was added. […] IC50 value represents the mean of two to four independent measurements.

E. coli (QA-11.7) = test: MIC broth microdilution, E. coli QA-11.7; format: cell-based; conditions: Escherichia coli, 20 h; multi-resistant isolate (ampicillin, azithromycin, cefotaxime, ertapenem, imipenem and others); read-out: MIC E. coli (QA-11.7)
Procedure: as §1

E. coli D22 = test: MIC broth microdilution, E. coli D22; format: cell-based; conditions: Escherichia coli, D22; mutation in the lpxC gene that increases membrane permeability; read-out: MIC E. coli D22
Procedure: as §1

[2] = Equilibrium solubility at pH 6.8; conditions: phosphate buffered saline, 37 °C, pH 6.8, aqueous buffer, thermodynamic from solid
Outline: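 Concentrations in solution were read by compound-specific isocratic HPLC calibrated with 30–90 mg/L external standards, after 5 min homogenization and 24 h shaking at 1200 RPM, 37 °C.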

S. aureus DNA gyrase = target: T2, S. aureus DNA gyrase (Staphylococcus aureus, UniProt P20831); test: biochemical; format: biochemical; conditions: for LE DNA Gyrase S. aureus: LE = (1.37/HA) × pIC50; for IC50: fluorescence plate supercoiling assay, mean of two to four measurements
T2 construct: purchased Inspiralis (Norwich, UK)
T2 sequence (P20831 whole entry): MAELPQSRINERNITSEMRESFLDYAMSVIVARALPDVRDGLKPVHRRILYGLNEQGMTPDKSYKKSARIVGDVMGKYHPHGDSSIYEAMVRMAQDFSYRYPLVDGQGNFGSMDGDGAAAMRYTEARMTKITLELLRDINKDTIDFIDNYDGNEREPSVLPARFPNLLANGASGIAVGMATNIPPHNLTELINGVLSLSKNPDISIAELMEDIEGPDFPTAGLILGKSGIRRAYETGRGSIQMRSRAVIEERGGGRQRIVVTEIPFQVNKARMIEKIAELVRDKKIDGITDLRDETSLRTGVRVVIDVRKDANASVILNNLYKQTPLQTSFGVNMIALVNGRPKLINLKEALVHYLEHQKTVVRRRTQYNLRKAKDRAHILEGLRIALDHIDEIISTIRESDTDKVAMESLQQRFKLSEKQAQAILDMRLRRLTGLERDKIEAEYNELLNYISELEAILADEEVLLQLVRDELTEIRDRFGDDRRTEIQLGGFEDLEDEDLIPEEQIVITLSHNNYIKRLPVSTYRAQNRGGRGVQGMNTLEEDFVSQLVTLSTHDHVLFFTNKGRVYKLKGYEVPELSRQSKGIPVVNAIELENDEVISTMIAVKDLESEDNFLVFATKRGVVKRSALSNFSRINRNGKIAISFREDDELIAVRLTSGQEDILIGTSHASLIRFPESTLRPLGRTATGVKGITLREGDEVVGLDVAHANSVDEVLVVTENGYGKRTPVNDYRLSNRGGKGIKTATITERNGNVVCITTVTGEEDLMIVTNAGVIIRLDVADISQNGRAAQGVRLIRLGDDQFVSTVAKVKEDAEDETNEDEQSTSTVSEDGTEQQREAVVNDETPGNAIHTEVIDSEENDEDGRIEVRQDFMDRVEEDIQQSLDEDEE
T2 sequence (P0A0K8 whole entry partner): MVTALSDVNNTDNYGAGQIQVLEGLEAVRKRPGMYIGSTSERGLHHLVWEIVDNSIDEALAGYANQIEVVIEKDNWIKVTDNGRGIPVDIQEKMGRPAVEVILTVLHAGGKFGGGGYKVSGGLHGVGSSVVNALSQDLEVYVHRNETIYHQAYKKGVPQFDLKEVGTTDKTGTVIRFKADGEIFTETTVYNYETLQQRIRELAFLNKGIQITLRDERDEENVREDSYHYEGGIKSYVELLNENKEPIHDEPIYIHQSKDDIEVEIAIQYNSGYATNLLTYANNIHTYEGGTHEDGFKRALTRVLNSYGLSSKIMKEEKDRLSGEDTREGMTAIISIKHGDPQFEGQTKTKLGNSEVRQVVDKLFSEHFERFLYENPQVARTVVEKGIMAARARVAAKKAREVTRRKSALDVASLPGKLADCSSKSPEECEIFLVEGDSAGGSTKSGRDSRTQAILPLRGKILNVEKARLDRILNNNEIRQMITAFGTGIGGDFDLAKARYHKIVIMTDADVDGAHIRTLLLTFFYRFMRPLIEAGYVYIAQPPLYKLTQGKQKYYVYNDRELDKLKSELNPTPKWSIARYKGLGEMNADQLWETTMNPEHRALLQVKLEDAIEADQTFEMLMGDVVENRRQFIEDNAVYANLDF
Procedure: (§3) A Gyrase Supercoiling High Throughput Plate assay kit, purchased from Inspiralis (Norwich. UK) was used to determine IC50 values of compounds on S. aureus and E. coli. […] Biotinylated oligonucleotide in wash buffer was immobilized onto the wells, and the excess oligonucleotide was washed off with wash buffer and ultrapure water. […] The reactions were stopped by adding the TF buffer (50 mM NaOAc (pH 4.7), 50 mM NaCl, and 50 mM MgCl2) to allow the triplex formation (biotin-oligonucleotide-plasmid) for additional 30 min. Afterward, the unbound plasmid was washed off using TF buffer, and the solution of Promega Diamond dye in T10 buffer (10 mM Tris-HCl (pH 8.0), 1 mM EDTA) was added. […] IC50 value represents the mean of two to four independent measurements.

E. coli DNA gyrase = target: T3, E. coli DNA gyrase (Escherichia coli, UniProt P0AES4); test: Gyrase Supercoiling High Throughput Plate assay, E. coli; format: biochemical; conditions: for LE DNA Gyrase E. coli: LE = (1.37/HA) × pIC50
T3 construct: purchased Inspiralis (Norwich, UK)
T3 sequence (P0AES4 whole entry): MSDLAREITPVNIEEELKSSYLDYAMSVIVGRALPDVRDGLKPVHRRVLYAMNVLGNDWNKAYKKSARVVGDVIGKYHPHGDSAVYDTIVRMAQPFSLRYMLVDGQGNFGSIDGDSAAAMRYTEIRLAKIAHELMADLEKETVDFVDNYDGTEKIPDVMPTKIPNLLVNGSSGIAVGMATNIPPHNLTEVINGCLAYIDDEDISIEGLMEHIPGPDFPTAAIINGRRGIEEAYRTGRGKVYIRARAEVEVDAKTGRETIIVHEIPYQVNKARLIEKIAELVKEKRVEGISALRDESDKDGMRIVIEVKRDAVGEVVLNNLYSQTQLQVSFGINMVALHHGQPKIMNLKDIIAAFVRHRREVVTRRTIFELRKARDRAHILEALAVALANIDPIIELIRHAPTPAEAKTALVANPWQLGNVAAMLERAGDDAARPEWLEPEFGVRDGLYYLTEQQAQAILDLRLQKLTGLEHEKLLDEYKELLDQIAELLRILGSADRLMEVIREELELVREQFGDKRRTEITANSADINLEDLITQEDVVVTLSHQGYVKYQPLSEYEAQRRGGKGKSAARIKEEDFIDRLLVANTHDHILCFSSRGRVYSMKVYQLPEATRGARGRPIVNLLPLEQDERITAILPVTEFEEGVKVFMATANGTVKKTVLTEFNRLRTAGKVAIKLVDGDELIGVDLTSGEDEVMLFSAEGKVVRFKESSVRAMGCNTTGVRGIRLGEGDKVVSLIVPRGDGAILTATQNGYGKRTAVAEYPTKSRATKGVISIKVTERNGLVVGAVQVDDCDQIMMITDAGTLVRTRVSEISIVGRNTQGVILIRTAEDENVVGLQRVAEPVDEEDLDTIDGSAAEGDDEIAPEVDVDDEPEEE
Procedure: as §3

in vitro = conditions: PAMPA
Outline: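 Pre-coated three-layer PAMPA plate; donor in bottom well, pH 7.4 PBS acceptor on top, 4 h at 37 °C. Donor and acceptor quantified by isocratic HPLC peak areas, 100-fold diluted initial donor as external reference; permeability calculated from peak areas corrected for dilution and injection volume.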

E. coli Topo IV = target: T4, E. coli Topo IV (Escherichia coli, UniProt P0AFI2); test: Topo IV Relaxation High Throughput Plate assay, E. coli; format: biochemical; conditions: for LE Topo IV E. coli: LE = (1.37/HA) × pIC50
T4 construct: purchased Inspiralis (Norwich, UK)
Procedure: as §2

[3] = read-out: E. coli N43 MIC in molar
[4] = read-out: MIC E. coli N43 (CGSC# 5583)

Compound | MIC [1] [µg/mL] | MIC (M. smegmatis) [µg/mL] | MIC (E. coli N43 (CGSC# 5583); [3]) [µM] | MIC (E. coli N43 (CGSC# 5583); [4]) [µg/mL] | MIC (MRSA (QA-11.6)) [µg/mL] | LE Topo IV S. aureus (S. aureus Topo IV) | IC50 (S. aureus Topo IV) [µM] | MIC (E. coli (QA-11.7)) [µg/mL] | MIC (E. coli D22) [µg/mL] | solubility thermodynamic at 24 h [2] [µg/mL] | LE DNA Gyrase S. aureus (S. aureus DNA gyrase) | IC50 (S. aureus DNA gyrase) [µM] | IC50 (E. coli DNA gyrase) [µM] | LE DNA Gyrase E. coli (E. coli DNA gyrase) | Papp at 4 h (in vitro) [×10⁻⁶ cm/s] | Papp at 4 h (in vitro; pH 7.4) [×10⁻⁶ cm/s] | IC50 (E. coli Topo IV) [µM] | LE Topo IV E. coli (E. coli Topo IV)
COc1ccc2nccc(CCN3CCC(NCc4ccc(OC(F)F)c(OC)c4)CC3)c2n1 [Compound 19, N-(4-(Difluoromethoxy)-3-methoxybenzyl)-1-(2-(6-methoxy-1,5-naphthyridin-4-yl)ethyl)piperidin-4-amine] | 2 (≈ 4.23 µM) | 4 (≈ 8.46 µM) | 2.12 | 1 | 2 (≈ 4.23 µM) | 0.18 | 29 ± 1.89 | 2 (≈ 4.23 µM) | 16 (≈ 33.9 µM) | 79 (≈ 167 µM) | 0.26 | 0.35 ± 0.03 | 3.9 ± 0.06 | 0.22 | > 2.7 | 9 | 0.1 ± 0.01 | 0.28
COc1ccc2nccc(CCN3CCC(NCc4ccc(OC(F)F)c(O)c4)CC3)c2n1 [Compound 20, 2-(Difluoromethoxy)-5-((1-(2-(6-methoxy-1,5-naphthyridin-4-yl)ethyl)piperidin-4-ylamino)methyl)phenol] | 0.015 (≈ 0.0327 µM) | 0.5 (≈ 1.09 µM) | 1.09 | 0.5 | 1 (≈ 2.18 µM) | – | > 100 | 2 (≈ 4.36 µM) | 2 (≈ 4.36 µM) | 103 (≈ 225 µM) | 0.27 | 0.33 ± 0.02 | 4.41 ± 0.16 | 0.22 | > 2.7 | 3 | 0.06 | 0.30
COc1ccc2nccc(CCN3CCC(NCc4ccc(C(F)(F)F)nc4)CC3)c2n1 [Compound 21, 1-(2-(6-Methoxy-1,5-naphthyridin-4-yl)ethyl)-N-((6-(trifluoromethyl)pyridin-3-yl)methyl)piperidin-4-amine] | 128 (≈ 287 µM) | 0.25 (≈ 0.561 µM) | 2.25 | 1 | 0.5 (≈ 1.12 µM) | 0.20 | 18.5 ± 1.32 | 2 (≈ 4.49 µM) | 4 (≈ 8.98 µM) | 209 (≈ 469 µM) | 0.29 | 0.16 ± 0.02 | 6.91 ± 1.62 | 0.22 | > 2.7 | 8.3 | > 100 | –
COc1ccc(CNC2CCN(CCc3ccnc4ccc(OC)nc34)CC2)cn1 [Compound 22, 1-(2-(6-Methoxy-1,5-naphthyridin-4-yl)ethyl)-N-((6-methoxypyridin-3-yl)methyl)piperidin-4-amine] | 2 (≈ 4.91 µM) | 16 (≈ 39.3 µM) | 2.38 | 1 | 2 (≈ 4.91 µM) | – | > 100 | 2 (≈ 4.91 µM) | 4 (≈ 9.82 µM) | 1460 (≈ 3580 µM) | 0.30 | 0.34 ± 0.05 | 7.24 ± 0.34 | 0.23 | > 2.7 | 8.2 | > 100 | –
